For one assay, the system named is AMP KINASE. As to the kind of experiment: AMP KINASE activation, cell based ELISA in Hepatoma (Hep 2) liver cells. The conditions noted are these: 30 m, over baseline of 100 (DMSO control). The method, then:
AMP KINASE activation potential of the compounds was evaluated using cell based ELISA·Hepatoma (Hep 2) liver cells were maintained in a T 75 culture flask-containing 25 mM DMEM+10% fetal calf serum. The cells were maintained in a T 75 culture flask-containing medium (DMEM+10% fetal calf serum). On reaching a confluence of 70 to 80%, the cells were seeded in a 96 well plate at a density of 40,000 cells per well in 25 mM DMEM+10% FCS medium. The plates were then incubated at 37° C. with 5% CO2 for 24 hours. Various concentrations of drugs were prepared in DMSO and diluted to required concentration with the medium and incubated at 37° C. with 5% CO2 for 30 min and 1 h for Epicatechin analogs and 11-BHP analogs respectively. Metformin was used as positive control·Cells were fixed with 4% formaldehyde for 30 minutes at room temperature and washed three times with PBS containing 0.1% Triton X-100. Endogenous peroxidase was quenched with 1% H2O2 in PBS-T (0.1% Tween 20) for 30 minutes and washed three times in PBS-T. Cells were blocked with 1% BSA in PBS-T for 1 hour. The cells were incubated with 1:1000 dilution primary antibody (Phospho-AMPKα ([…]) Rabbit mAb, Cell Signaling in PBS-T containing 5% BSA at 4° C. overnight. The cells were then washed three times with PBS-T for 5 minutes and incubated with 1:1000 dilution secondary antibody (Anti-rabbit IgG, HRP-linked Antibody, Cell Signaling) in PBS-T with 1% BSA for 1 hour at RT·Cells were washed three times with PBS-T for 5 minutes The cells were incubated with 100 μl TMB substrate solution for 30 minutes and the reaction was stopped with 100 μl of 2N H2SO4. Then the plate was read at 450 nm using ELISA plate reader and absorbance recorded. % activity was calculated using DMSO control as 100%.

Assay [1] deals with mitochondrial oxidative phosphorylation complex I. Nature of the assay: Western blot of mitochondrial oxidative phosphorylation complex I protein levels in human coronary artery endothelial cells. The format is cell-based. The conditions noted are these: HCAEC, 48 h, FIG. 1a. The method, then: Cells were grown in Dulbecco's modified Eagle's media supplemented with fetal bovine serum (10%) to ˜90% confluence. Cells were treated with either vehicle (water) or incremental doses of the agent (dissolved in water) for a total of 48 h (treatment was repeated at the 24 h time point). At the end of the experiment, cells were lysed in Western blot sample buffer. A fixed amount of protein (25 micrograms) was loaded onto a polyacrylamide gel and run for 1 h to allow for the electrophoretic separation of proteins. The gel was then transferred onto a polyvinyl membrane for incubation with blocking buffer prior to exposure to the 1ry antibody (anti-human complex […]. Following a 1 h incubation at room temperature the membrane was washed and then exposed to the 2ry antibody for 1 h. after a second set of washes the membrane was incubated with an enhanced-chemiluminescence kit solution followed by exposure to X-ray film. The image obtain was used to quantitative changes in complex I protein levels as a function of compound dose. To normalize for loading differences the membrane was re-incubated (as above) with the subunit 6 ribosomal protein (S6RP) and exposed to X-ray film. Changes in values for complex I levels are normalized to differences in S6RP levels. All data are normalized to the values noted for cells treated with vehicle only (=100%). The results are presented at FIG. 1 a.

Another assay concerns AMPKinase. As to the kind of experiment: AMPKinase activation in HepG2 cells (Western blot of phosphorylated AMPK and ACC). The format is cell-based. The note with it: HepG2, 1 hour, FIG. 2a. An excerpt:
OHP effects on AMPKinase activation in HepG2 cells. […] (RNeasy kit, QIAGEN). OHP effects on APPL1 nuclear translocation. […] The results are presented at FIGS. 2a and 2b.

Assay [2] deals with HepG2 cells. As to the kind of experiment: Mitochondrial DNA content in HepG2 cells. The format is cell-based. The conditions noted are these: HepG2, 24 hours, FIG. 3b. The source says: The results are depicted at FIGS. 3a and 3b.
In assay [3] the test system is HepG2 cells. As to the kind of experiment: Intracellular glucose production (de novo gluconeogenesis) in HepG2 cells. The format is cell-based. The conditions noted are these: HepG2, FIG. 5. The method, then: (§1) HepG2 cells were exposed to serum-free media for 3 hours and then exposed to gluconeogenic factors (lactate and pyruvate 10:1 ratio) and stimulators (cAMP) in the presence of increasing concentrations of OHP (in nM). Intracellular glucose production—a marker of de novo gluconeogenesis—was determined enzymatically (biovision glucose determination kit), as well as intracellular beta-hydroxybutyrate levels (a marker of fat oxidation) and triglycerides (substrate for fat oxidation). […] The results are depicted at FIG. 5.

Assay [4] deals with HepG2 cells. As to the kind of experiment: Fat oxidation (intracellular beta-hydroxybutyrate, triglycerides) in HepG2 cells. The format is cell-based. The note with it: HepG2, FIG. 5. The method, then: as §1
The mark [5] stands for this setting: listed as 11β-hydroxypregnenolone.

Structures are written as SMILES.

Take `CC(=O)C1CC[C@H]2[C@@H]3CC=C4CC(O)CC[C@]4(C)[C@H]3[C@@H](O)C[C@]12C` (stereo partly drawn) [Compound 1039, 1-((8S,9S,10R,11S,13S,14S)-3,11-dihydroxy-10,13-dimethyl-2,3,4,- 7,8,9,10,11,12,13,14,15,16,17-tetradecahydro-1H-cyclopenta[a]-phenanthren-17-yl)ethanone]: the “% pAMPK” value in the assay with AMP KINASE (0.1 nM) was found to be 109%. Also, the “mitochondrial biogenesis (complex I protein levels)” value is “causes mitochondrial biogenesis” in assay [1] and “mitochondrial biogenesis” in assay [1] (setting [5]). Also, the results for the “activation of AMP kinase” value in the assay on AMPKinase and with AMPKinase (setting [5]) were “activates AMPkinase” and “activation of AMP KINASE”, respectively. Further, the “mitochondrial DNA content” value in the assay with HepG2 cells [2] was “increases the DNA content of mitochondria”; in the assay with HepG2 cells [2] (setting [5]) it was “increase of mitochondrial DNA content”. In addition, the “hepatic gluconeogenesis (intracellular glucose production)” value with HepG2 cells [3] is listed as “reduces hepatic gluconeogenesis”; in the assay on HepG2 cells [3] (setting [5]), “reduction of hepatic gluconeogenesis”. Moreover, the figures for the fat oxidation entry with HepG2 cells [4] and in the assay on HepG2 cells [4] (setting [5]) were “stimulates oxidation of fat” and “stimulation of fat oxidation”, respectively.

Turning to `CC(=O)C1CC[C@H]2[C@@H]3CCC4=CC(=O)CC[C@]4(C)[C@H]3[C@@H](O)C[C@]12C` (stereo partly drawn) [Compound 1040, (8S,9S,10R,11S,13S,14S)-17-acetyl-11-hydroxy-10,13-dimethyl-6,7,8,9,10,11,12,13,- 14,15,16,17-dodecahydro-1H-cyclopenta[a]phenanthren-3(2H)-one], the “% pAMPK” value in the assay on AMP KINASE (0.1 nM) is 118%.

`CN(C)C(=N)N=C(N)N` [Metformin, reference compound]: the “% pAMPK” value in the assay with AMP KINASE (2 mM) is 121%.

(Values after patent US11542298B2, “Hydroxysteroid compounds, their intermediates, process of preparation, composition and uses thereof” (Epirium Bio Inc., priority 2014, dated 2023).)
